For this assay, the target named is T1, CHK1 (Homo sapiens, UniProt O14757).
T1 sequence (O14757 1-476): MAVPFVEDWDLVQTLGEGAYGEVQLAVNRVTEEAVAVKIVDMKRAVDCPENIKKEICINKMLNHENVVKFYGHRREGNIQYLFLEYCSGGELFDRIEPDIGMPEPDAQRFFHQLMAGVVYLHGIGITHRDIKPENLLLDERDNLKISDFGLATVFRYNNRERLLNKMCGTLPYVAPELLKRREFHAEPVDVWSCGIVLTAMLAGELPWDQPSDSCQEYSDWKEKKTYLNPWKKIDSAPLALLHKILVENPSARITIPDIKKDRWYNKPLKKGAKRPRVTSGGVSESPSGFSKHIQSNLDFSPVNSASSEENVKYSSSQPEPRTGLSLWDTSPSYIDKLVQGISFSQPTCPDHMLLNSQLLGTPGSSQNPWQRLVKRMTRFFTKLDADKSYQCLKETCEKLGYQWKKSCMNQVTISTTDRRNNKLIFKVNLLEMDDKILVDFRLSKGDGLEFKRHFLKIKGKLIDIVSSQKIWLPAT
As to the kind of experiment: CHK1 kinase function inhibition assay (DELFIA, phosphorylation of a CDC25C peptide). Format: biochemical. To be noted: CHK1 1 nM, ATP 30 μM, 30 minutes at room temperature. The procedure: Measurement of Inhibition of CHK1 Kinase Function
CHK1 kinase function was measured in a DELFIA® assay in order to monitor phosphorylation of a CDC25C peptide using a specific phospho antibody.
The reaction mixture was incubated for 30 minutes at room temperature and then stopped by the addition of buffer (125 μL) containing 40 mM EDTA, 0.05% Tween 20, 0.1% BSA in TBS (10× concentrate, Sigma). An aliquot (100 μL) of the stopped reaction mixture was transferred to a black neutravidin-coated plate (Perbio) and incubated for 1 hour on a shaker (Titertek, Flow Laboratories) at room temperature. […] The plates were washed a further four times with wash buffer before the addition of enhancement solution (100 μL/well, PerkinElmer Life Sciences).

pIC50: −log10 of the molar value. A value given as a limit tells only on which side of the number the result lay.

As to `COC(=O)c1cnc(Nc2cnc(C#N)cn2)cc1NC1CC2CCC(C1)N2Cc1ccccn1` (centres unmarked) [Compound Y-080, Methyl 6-(5-cyanopyrazin-2-ylamino)-4-(8-(pyridin-2-ylmethyl)-8-azabicyclo[3.2.1]octan-3-ylamino)nicotinate], the pIC50 was not below 7.00. Under `COC(=O)c1cnc(Nc2cnc(C#N)cn2)cc1NCC[C@H]1CNCCO1` [Compound Y-082, (S)-Methyl 6-(5-cyanopyrazin-2-ylamino)-4-(2-(morpholin-2-yl)ethylamino)nicotinate] stands not below 7.00; under `COC(=O)c1cnc(Nc2cnc(C#N)cn2)cc1NCC1(F)CCNCC1` [Compound Y-083, Methyl 6-(5-Cyanopyrazin-2-ylamino)-4-((4-fluoropiperidin-4-yl)methylamino)nicotinate], not below 7.00; under `COCCNC(=O)c1cnc(Nc2cnc(C#N)cn2)cc1NCC1CCNCC1` [Compound Y-084, 6-(5-Cyanopyrazin-2-ylamino)-N-(2-methoxyethyl)-4-(piperidin-4-ylmethylamino)nicotinamide], not below 7.00. For the molecule `CCNC(=O)c1cnc(Nc2cnc(C#N)cn2)cc1NC1CCN(C)CC1` [Compound Y-085, 6-(5-Cyanopyrazin-2-ylamino)-N-ethyl-4-(1-methylpiperidin-4-ylamino)nicotinamide], the pIC50 was not below 7.00. Then `CC(C)NC(=O)c1cnc(Nc2cnc(C#N)cn2)cc1NCC1CCNCC1` [Compound Y-086, 6-(5-Cyanopyrazin-2-ylamino)-N-isopropyl-4-(piperidin-4-ylmethylamino)nicotinamide], with not below 7.00; and `N#Cc1cnc(Nc2cc(NCC3CCNCC3)c(C(=O)N3CCCC3)cn2)cn1` [Compound Y-087, 5-(4-(Piperidin-4-ylmethylamino)-5-(pyrrolidine-1-carbonyl)pyridin-2-ylamino)pyrazine-2-carbonitrile], with not below 7.00; and `N#Cc1cnc(Nc2cc(NCC3CCNCC3)c(C(=O)NCCO)cn2)cn1` [Compound Y-088, 6-(5-Cyanopyrazin-2-ylamino)-N-(2-hydroxyethyl)-4-(piperidin-4-ylmethylamino)nicotinamide], with 6.00 to 7.00.

The molecule `N#Cc1cnc(Nc2cc(NCC3CCNCC3)c(C(=O)N3CCOCC3)cn2)cn1` [Compound Y-089, 5-(5-(Morpholine-4-carbonyl)-4-(piperidin-4-ylmethylamino)pyridin-2-ylamino)pyrazine-2-carbonitrile] gave a pIC50 of 5.00 to 6.00. Then `COCCN(C)C(=O)c1cnc(Nc2cnc(C#N)cn2)cc1NCC1CCNCC1` [Compound Y-091, 6-(5-Cyanopyrazin-2-ylamino)-N-(2-methoxyethyl)-N-methyl-4-(piperidin-4-ylmethylamino)nicotinamide], with 6.00 to 7.00; and `N#Cc1cnc(Nc2cc(NCC3CCNCC3)c(C(=O)Nc3ccc(F)cc3)cn2)cn1` [Compound Y-092, 6-(5-Cyanopyrazin-2-ylamino)-N-(4-fluorophenyl)-4-(piperidin-4-ylmethylamino)nicotinamide], with 6.00 to 7.00; and `N#Cc1cnc(Nc2cc(NCC3CCNCC3)c(C(=O)Nc3ccccc3F)cn2)cn1` [Compound Y-093, 6-(5-Cyanopyrazin-2-ylamino)-N-(2-fluorophenyl)-4-(piperidin-4-ylmethylamino)nicotinamide], with 6.00 to 7.00. Under `N#Cc1cnc(Nc2cc(NCC3CCNCC3)c(C(=O)Nc3cccc(F)c3)cn2)cn1` [Compound Y-094, 6-(5-Cyanopyrazin-2-ylamino)-N-(3-fluorophenyl)-4-(piperidin-4-ylmethylamino)nicotinamide] stands 6.00 to 7.00. Then `COc1ccc(NC(=O)c2cnc(Nc3cnc(C#N)cn3)cc2NCC2CCNCC2)cc1` [Compound Y-095, 6-(5-Cyanopyrazin-2-ylamino)-N-(4-methoxyphenyl)-4-(piperidin-4-ylmethylamino)nicotinamide], with not below 7.00.
